Measurements published in paper PMC2542349, “Pharmacokinetic and metabolic effects of American ginseng (Panax quinquefolius) in healthy volunteers receiving the HIV protease inhibitor indinavir” (BMC Complementary and Alternative Medicine, 2008).
“And” between values parts separate entries of the source, which are not always exact repeats. Equal entries are not always repeated. Where two headings read alike, the source gives them in different places.

Tests used:
healthy volunteers [1] = test: Hyperinsulinemic euglycemic clamp (glucose utilization M, insulin sensitivity M/I); type: in vivo, human
Protocol: Peripheral sensitivity to glucose was assessed by the hyperinsulinemic euglycemic clamp technique. Subjects were admitted to the GCRC in the afternoon prior to the clamp procedure and maintained on a eucaloric diet (50% carbohydrate, 30% fat, and 20% protein). After an overnight fast, an intravenous catheter was placed in the antecubital vein for infusion of glucose and insulin. A second catheter for blood sampling was inserted in a dorsal vein of the hand in a retrograde fashion. The hand was placed into a 50°C warming box to "arterialize" the samples [20]. After baseline blood samples were obtained, a primed, continuous infusion of regular insulin (40 mU/m^2/min) was started, followed by a constant infusion of 20% dextrose at a variable rate, based on 5-minute measurements of blood glucose, in order to maintain blood glucose concentrations at each subject's baseline level ± 5%. Infusion continued for a total of 180 minutes.
Glucose utilization (M) was calculated as the average glucose infusion rate (milligrams of glucose/kilograms of FFM/minute) during the last 60 minutes of the infusion (i.e. steady state portion). FFM was derived from the baseline evaluation by dual energy X-ray absorptiometry (DXA).
During the final 60 minutes of the insulin clamp procedure, samples were obtained at 10 minutes intervals to determine insulin concentrations. M divided by the average insulin concentration in the final 60 minutes (I), which represents the amount of glucose metabolized per unit of insulin, was used as the primary measure of insulin sensitivity. […] Fasting serum glucose and homeostasis model assessment of insulin resistance (HOMA-IR), a widely used marker of insulin sensitivity, were assessed prior to the insulin clamp procedure at each of the inpatient study visits.
We then multiplied this value by 10^6 for ease of interpretation.

healthy volunteers [2] = test: Fasting serum glucose, HOMA-IR and body weight at inpatient visits; type: in vivo, human
Protocol: Body composition, including fat-free mass (FFM), was assessed at baseline using dual x-ray absorptiometry (Hologic-QDR 4500W, Hologic Co, Bedford, MA, intra-subject CV < 2%). BMI was assessed during each inpatient admission and was calculated as the weight in kilograms/height in meters squared.
During the final 60 minutes of the insulin clamp procedure, samples were obtained at 10 minutes intervals to determine insulin concentrations. M divided by the average insulin concentration in the final 60 minutes (I), which represents the amount of glucose metabolized per unit of insulin, was used as the primary measure of insulin sensitivity. During the second and third inpatient visits, the morning dose of IDV (and AG for the third inpatient visit) was given immediately prior to the beginning of the insulin clamp procedure. Fasting serum glucose and homeostasis model assessment of insulin resistance (HOMA-IR), a widely used marker of insulin sensitivity, were assessed prior to the insulin clamp procedure at each of the inpatient study visits.

[3] = for Cmin: GM (95%CI)
healthy volunteers [4] = details: cited from earlier work
healthy volunteers [5] = test: Safety assessment in healthy volunteers; type: in vivo, human
From the text: There were no serious adverse events. Three subjects developed transaminitis. In one subject (as previously mentioned), an AST elevation 3 times the upper limit of normal (Grade 2) after 3 days of IDV required study discontinuation. Three subjects were noted to have mild elevations in bilirubin. […] One patient reported an episode of vomiting and one subject reported dyspepsia after dose administration. All laboratory abnormalities and symptoms normalized after discontinuation of the study drugs. With the exception of the Grade 2 transaminites, all adverse events occurred during the co-administration of IDV and AG.

clinical = details: human, plasma, oral

difference in IDV AUC2–3 (IDV alone vs IDV and AG) ([3]; 10 subjects, p = 0.22): 430 ± 330 ng·h/mL
Cmin ([3]; IDV + AG (Day 22), n = 13): 62.78 (39.72–99.24) ng/mL
Cmin ([3]; IDV alone (Day 7), n = 13): 61.97 (42.72–89.88) ng/mL
AUC0–8 Day 22/Day 7 Geometric Mean Ratio (90% CI) ([3]; IDV with vs without AG, n = 13): 0.89 (0.72–1.08)
Cmax Day 22/Day 7 Geometric Mean Ratio (90% CI) ([3]; IDV with vs without AG, n = 13): 1.00 (0.77–1.29)
tmax Day 22/Day 7 Geometric Mean Ratio (90% CI) ([3]; IDV with vs without AG, n = 13): 0.75 (0.53–1.06)
AUC (clinical): 1920 ± 483 ng·h/mL
AUC (clinical; 800 mg): 2350 ± 389 ng·h/mL
Cmax (clinical; 800 mg): 5620 ng/mL
Tmax (clinical; 800 mg): 58.8 min
SMILES: CC(C)(C)NC(=O)[C@@H]1CN(Cc2cccnc2)CCN1C[C@@H](O)C[C@@H](Cc1ccccc1)C(=O)N[C@H]1c2ccccc2C[C@H]1O [IDV, Indinavir]
average decrease in insulin sensitivity (M/I) compared to baseline (healthy volunteers [1]; after 3 days of IDV 800 mg q8h, n = 11, p = 0.03): 14.8 ± 5.9% and 15%
insulin sensitivity (M/I), mean (healthy volunteers [1]; after 3 days of IDV, n = 11, mean ± SEM, baseline 0.113 ± 0.012): 0.096 ± 0.014 mg/kg FFM/min per μU/ml of insulin
average glucose utilization (M) (healthy volunteers [1]; after 3 days of IDV, n = 11, mean ± SEM, baseline 7.73 ± 0.75, p = 0.005): 6.32 ± 0.78 mg/kg FFM/min
M/I divided by the IDV AUC2–3 (insulin sensitivity per unit of plasma IDV) (healthy volunteers [1]; post hoc, 10 subjects, IDV alone vs IDV + AG, p = 0.03): 60.9 ± 15.4 mg Glucose·10^6/kg FFM/min/μU/ml of insulin/ng·hr/mL IDV
M (multiplied times 10^6) divided by the IDV AUC2–3 (healthy volunteers [1]; post hoc, 10 subjects, IDV alone vs IDV plus AG, p = 0.05): 4240.6 ± 1180.0 mg Glucose·10^6/kg FFM/min/ng·hr/mL IDV
Glucose utilization (M), mean (healthy volunteers [1]; second (IDV alone) vs third (IDV + AG) clamp, ten subjects, mean ± SEM, p = 0.62): 6.68 ± 0.76 mg/kg FFM/min
insulin sensitivity (M/I), mean (healthy volunteers [1]; second (IDV alone) vs third (IDV + AG) clamp, ten subjects, mean ± SEM, p = 0.72): 0.102 ± 0.013 mg/kg FFM/min per μU/ml of insulin
Fasting glucose (healthy volunteers [2]; before vs after 2 weeks of AG, p = 0.65): 93.0 ± 1.4 mg/dL
HOMA-IR (healthy volunteers [2]; before vs after 2 weeks of AG, p = 0.95): 1.4± 0.25
HOMA-IR (healthy volunteers [2]; second admission (after 3 days IDV), baseline 1.34 ± 0.32, p = 0.97): 1.34 ± 0.23
Fasting glucose (healthy volunteers [2]; second admission (after 3 days IDV), baseline 92.4 ± 1.8, p = 0.27): 95.0 ± 2.4 mg/dL
decrease in insulin sensitivity (healthy volunteers [4]; healthy volunteers, IDV 800 mg q 8 hours): 17%
decrease in insulin sensitivity (healthy volunteers [4]; single dose of 1200 mg): 34%
tolerability (healthy volunteers [5]; healthy volunteers): well tolerated
AST elevation (healthy volunteers [5]; one subject, Grade 2, after 3 days of IDV, required study discontinuation): 3 times the upper limit of normal
